Data as given in patent publication US20220241429A1, “Antifolate-Carrying Nanoparticles and Their Use in Medicine” (priority 2018, published 2022).
pIC50: −log10 of the molar value.

Experiments:
[1] = tested on: Hep3B cells; assay: Cytotoxic or cytostatic activity on Hep3B cells; type: cell-based; conditions: Homo sapiens, Incubation time 72 hours, concentration range 40 pM to 500 μM
Protocol: (§1) The cytotoxic or cytostatic activity of methotrexate, the linker-modified methotrexate, MTX-(EG)3-NH2 and of MTX-(EG)3-NH2-loaded gold nanoparticles (GNPs) ([MTX-(EG)3-NHC(O)-(EG)8][alpha-Gall][COOH-(EG)8]@Au) was assessed by treatment of Hep3B and U87MG cells. Incubation time was 72 hours and the concentration range was 40 pM to 500 μM. The results are expressed as IC50 and are as follows: […]

[2] = tested on: U87MG cells; assay: Cytotoxic or cytostatic activity on U87MG cells; type: cell-based; conditions: Homo sapiens, U-87 MG; Incubation time 72 hours, concentration range 40 pM to 500 μM
Protocol: as §1

| Structure (SMILES) | pIC50 [1] | pIC50 [2] |
| --- | --- | --- |
| CN(Cc1cnc2nc(N)nc(N)c2n1)c1ccc(C(=O)N[C@@H](CCC(=O)O)C(=O)O)cc1 [MTX, Methotrexate] | 6.00 to 9.00 | 6.00 to 9.00 |
| CN(Cc1cnc2nc(N)nc(N)c2n1)c1ccc(C(=O)NC(CCC(=O)NCCCOCCOCCOCCCN)C(=O)O)cc1 (stereo not shown) [MTX-(EG)3-NH2, 4-[(3-{2-[2-(3-aminopropoxy)ethoxy]ethoxy}propyl)carbamoyl]-2-[(4-{[(2,4-diaminopteridin-6-yl)methyl](methyl)amino}phenyl)formamido]butanoic acid] | 6.00 to 9.00 | 3.00 to 6.00 |
